Measured values from article PMC3578829, “A Small Molecule (Pluripotin) as a Tool for Studying Cancer Stem Cell Biology: Proof of Concept” (PLoS ONE, 2013).
“And” between values parts separate entries of the source, which are not always exact repeats. Equal entries are not always repeated.

What was measured:
colon tumor lines [1] = assay: Cloning assay, all colon tumor lines; assay type: cell-based
Protocol: Culture dishes were transferred to a refrigerator (4°C) for 15 min, to room temperature for 10 min, and then to culture incubators. An upper layer of 0.5 ml culture medium was applied on day 0. Cultures were stained with MTT (1 mg/ml) for visualization and imaging at multiple time intervals (day 7 and 14). Cumulative counts of colonies (diameters, >60 µm) and cumulative volumes of CFU (diameters >120 µm) were determined with an Omnicon FAS-II (Bausch & Lomb, Rochester, NY) following calibration with an Omnicon test plate 3 and polystyrene microspheres embedded in soft agar matrix. The evaluable region of each culture dish (35 contiguous fields equivalent to 51% of the cell layer culture volume) was analyzed. Selective scoring of viable cell groups was achieved by adjustment of the instrument detection threshold to exclude images of nonstained cellular material and debris. The data was analyzed with Lotus Symphony software.

RSK2 = assay: Immunoblotting of RSK2 protein levels in COLO 205; assay type: cell-based; conditions: 5 days of exposure to 0.1 µM SC-1
Protocol: Since SC-1 inhibited RSK2 kinase activity, we first determined if RSK2 protein levels were altered.
Standard protein electrophoretic techniques were followed using previously published protocols. For these studies, the colon lines were cultured for 5 days with and without treatments, harvested with trypsin (0.25% trypsin 0.5 mM EDTA, Invitrogen), counted and lysed with a whole cell lysis buffer (10 mM Tris, 1.0 mM EDTA, 50 mM NaCl, 0.5% deoxycholate, 0.5% NP-40, 0.5% SDS, 1.0 mM PMSF, and aprotonin and a cocktail of phosphatase and protease inhibitors). The whole cell lysate was heated to 100°C for 10 min and then fractionated (1000 g, 10 min, 4°C). Protein concentrations were measured with the Pierce BCA Protein Assay. Twenty to 40 µg of protein lysate per lane were loaded onto 10% SDS polyacrylamide gels (Ready-Gels, Biorad) with Laemmli buffer. For immunoblotting, the primary antibodies were diluted in Tween/Tris wash buffer (0.1 mM Tris-HCl pH 7.5, 2.5% Tween-20, 150 mM NaCl) and 5% BSA or nonfat dry milk and incubated overnight at 4°C. […] Pixel intensity of the imaged bands was measured using STORM (GE Amersham) and Image Quant Software. Normalization for loading was accomplished by reprobing with an anti-actin antibody, quantification of pixel intensity and data normalization.

colon tumor lines [2] = conditions: five day exposure to 0.1 µM SC-1
Protocol: In all experiments, each tumor line was cultured in 60 mm^2 tissue culture treated dishes at an initial concentration of 62,500/ml (total 4 ml) before addition of 0.1 µM SC-1 or an equivalent amount of diluent (DMS0) the next day. Five day exposures were conducted. The final concentration utilized for treatment for all tumor lines was determined by evaluating a range of SC-1 concentrations (0.01 to 10 µM) for sphere formation and any cytotoxic effects in the HCT-116 tumor line.
*Each colon cell line was seeded on day 0 with 0.25 x 10^6 cell/60 mm^2 Petri dish. Compound (0.1 µM) was added on day 1 and cells were enzymatically harvested 5 days later.

colon tumor lines [3] = assay: FACS analysis of CD326 and CD166, all tumor lines; assay type: cell-based; conditions: any of the tumor lines; five days of SC-1 treatment
Text: A BD FACsAria (BD Biosciences, San Jose, CA) was utilized for FACS analysis according to standard procedures. The instrument was equipped with a 488 nm 100 mW blue laser, a 638 nm 30 mW red laser, and a 405 nm 50 mW violet laser. The software package Diva 5.0 (BD Biosciences) was used for collection and analysis of data. The alignment of the three lasers in the flow cell was verified prior to running tumor cell samples by running Rainbow Beads (Spherotech). The six colors being used in the analysis were then compensated to account for spectral overlap emitted by the fluorochromes within each laser as well as across the lasers using a semi-automated process. […] The data was then run through the Diva software compensation matrices and the amount of “spectral bleed” from other fluorochromes into the fluorochrome of interest’s channel was determined and automatically compensated.
Treated and untreated cells (1×10^6 cells/condition) were harvested with trypsin EDTA (Invitrogen), washed, and then labeled with a six antibody cocktail (antibodies against the following epitopes: CD44, CD24, CD133, CD326, CD166, and P-glycoprotein in PBS without calcium and magnesium supplemented with 2% FBS) or appropriate isotype control antibodies. […] The specific amounts needed for each labeled antibody were determined through titration studies. […]

[4] = test system: Seven Colon Tumor Lines of the NCI60 Panel; assay: Limiting dilution tumorigenicity, combined colon tumor lines; assay type: in vivo, NOD.SCID mice; conditions: for Tumor take rate, TOTAL: 7 colon tumor lines treated 5 days with 0.1 µM SC-1
Protocol: Five day exposures were conducted.
Six week old female NOD.SCID mice were randomly assigned to each of 20 treatment arms (n = 5/group). Treated and control colon tumor lines were enzymatically harvested and counted prior to dilution in RPMI 1640 (at 10, 100, 1,000, 10,000 cells/inoculum) for subcutaneous injection into the axillary region using a volume of […]. Positive control groups were established such that tumor formation occurred in all mice in approximately one week thus confirming that all tumor lines studied were tumorigenic. Cell inocula for the positive control groups ranged from 1×10^6 to 2.5×10^6. Cell viability of the cell stocks was assessed by trypan blue exclusion prior to dilution for injection and was routinely found to be >95%. Tumor formation was monitored weekly using caliper measurements and the tumor mass was calculated as weight in mg = 1/2×(tumor length)×(tumor width)^2. All experiments were terminated at 120 days or when tumor weight exceeded 2000 mg for any individual mouse. In selected studies, tumor cells were resuspended in Matrigel (50% concentration, BD Biosciences) prior to injection.
Chi square tests and nonparametric conditional estimate for the Cochran Mantel-Haenzel common odds ratio were performed for the limiting dilution tumorigenicity studies. In the later case, the tumor lines were used as the stratification variable and the test evaluated whether the tumor take rate was equal in the two groups (control and treated). The purpose of combining data across distinct colon tumor lines was to aggregate small changes that if summed, may represent a heterogeneous population of patients with colon tumors, similar to analyses in clinical trials.

Cc1cc(Nc2ncc3c(n2)N(C)C(=O)N(c2cc(NC(=O)c4cccc(C(F)(F)F)c4)ccc2C)C3)n(C)n1 [SC-1]
Cloning efficiency, all tumor lines (colon tumor lines [1]; assay conducted using Matrigel instead of soft agar (data not shown)): increased cloning efficiency
Tumor lines with statistically significant increases in cumulative colony forming unit (CFU) mass (colon tumor lines [1]; soft agar, 0.1 µM SC-1 for five days, vs control treated cells): 5/7
Decrease of RSK2 protein levels (RSK2): 33%
Cell number after in vitro SC-1 treatment vs control (colon tumor lines [2]): statistically significant decrease in cell number
CD326 and CD166 surface expression (colon tumor lines [3]): No changes
Tumor take rate, TOTAL ([4]; 100 cells inoculated s.c.): 2/35
Tumor take rate, TOTAL ([4]; 1000 cells inoculated s.c.): 6/35
Tumor take rate, TOTAL ([4]; 10000 cells inoculated s.c.): 19 of 35 and 19/35
Frequency estimate of tumor initiating ability, increase vs control ([4]; cumulative tumor take rate, 7 colon tumor lines, calculated from Taswell): approximately 2 fold
Mean day to 1000 mg tumor ([4]; mean±s.e.m. of 5 colon lines forming tumors, 10,000 cells/inoculum, 0.1 µM SC-1 pretreatment): 83 ± 19 days
